Measured values published in patent US10265286B2, “Sequelae of cardiopulmonary bypass-induced pulmonary injury” (Vanderbilt University, priority 2016, dated 2019).

Key:
[1] = Phase IB study: length of time on inotropes and inotrope score; format: in vivo, human
Text: The inotrope dose should be monitored post operatively from the time of PCCU admission using the following scoring system:
• =total inotrope score See, e.g., Hoffman, et al. Circulation (2003) 107: 996-1002. A decrease in the inotrope score would be a positive postoperative outcome.
In FIG. 21, data are defined as the time between the start and end times of inotrope use. All missing or 0 total inotrope scores prior to the first measured score are set to 0 and are therefore not considered as being on inotropes. The total inotrope score is considered, which is calculated on the basis of Dopamine, Dobutamine, Milrinone, Epinephrine, Phenylephrine, and Norepinephrine. The length of time on inotropes of patients with no use of inotropes is set to 0 hours (not censored).
The length of time on IV inotropes was documented from the time of first use after surgery until completion of the study medication at 48 hours, i.e. the duration of inotrope use was maximally 48 hours in the current analysis. Patients still receiving inotropes at hour 48 after surgery were censored. The average duration of intravenous (IV) inotrope use was clearly lower in the citrulline group than in the placebo group (Table 12). However, statistical significance for the between-treatment difference was not reached.

[2] = Phase IB study: vasoactive medications; format: in vivo, human
Method: The total number of hours on vasoactive medications, including nitroglycerin, nitroprusside and vasopressin, was calculated from the end of surgery until the discontinuation of vasoactive medications or end of study medication (Hour 48), whichever occurred first. Table 14 compares the length of time on vasoactive medications for the citrulline and placebo treatment groups. The overall duration of concomitant vasoactive treatment was shorter in citrulline—than placebo-treated patients, but the difference was not statistically significant. Similar results are shown for the total vasoactive score. However, the patient receiving citrulline did, in fact, show a shorter total duration of vasoactive medication as shown in FIG. 30.

[3] = Intravenous citrulline dose escalation safety (adverse effects, hypotension); format: in vivo, human
Method: The initial goal was to test the safety and pharmacokinetics of three doses of intravenous citrulline in children undergoing surgical repair of specific congenital heart defects. […] An adverse drop in mean arterial pressure was defined as a greater than a twenty percent decrease from baseline. The baseline postoperative mean arterial blood pressure was calculated as the average of mean arterial blood pressure measurements collected every 5 minutes for the 30 minutes immediately preceding the administration of the postoperative dose or infusion.

[4] = Phase IB study: duration of ICU stay; format: in vivo, human
Method: Duration of ICU stay was analyzed once as the total number of postoperative hours spent in the ICU and once as the total number of postoperative hours that a patient required postoperative mechanical ventilator or continuous intravenous inotrope or vasodilator support. The latter combination of parameters represents another surrogate endpoint for ICU stay.

[5] = Hemodynamics (mean arterial blood pressure) after intravenous citrulline in piglets; format: in vivo, Duroc swine; conditions: 600 mg/kg IV
Method: The objective was to assess the safety of intravenous citrulline and its effect on serum arginine levels in piglets. A total of 9 Duroc swine, aged 5-21 days, with a target minimum weight of 4 kg were utilized. All piglets underwent anesthetic induction and tracheostomy. Central lines were placed in the femoral artery and femoral vein and hemodynamics monitored continuously. Citrulline (600 mg/kg IV) was administered to 5 piglets. Saline was given to control animals. Serum amino acids were drawn before and each hour after citrulline administration.

[6] = tested on: human vascular endothelial cells; assay: Nitric oxide production by cultured human vascular endothelial cells (FIG. 23); format: cell-based; conditions: cells stimulated with acetylcholine; nitrate/nitrites by Seiver's system
Method: These agents were administered to cultured human vascular endothelial cells stimulated with acetylcholine. Measurement of nitric oxide was through a Seiver's system of nitrate/nitrites.

[7] = Phase IB study: plasma citrulline concentrations (Example 10A); format: in vivo, human; conditions: for Number of samples with Citrulline >100 μmol/L / Number of samples with Citrulline ≤100 μmol/L: all samples except baseline
Method: Twenty two (22) patients were enrolled and treated. Patients received an IV citrulline bolus of 150 mg/kg or placebo at the initiation of CPB, followed by the addition of L-citrulline at a concentration of 200 μmol/L or placebo to the filtration or hemoconcentration replacement fluid used during CPB. A citrulline bolus of 20 mg/kg was administered 30 minutes after decannulation from CPB, immediately followed by a 9-mg/kg/hr continuous infusion of citrulline or placebo for 48 hours. Study participation ended at discharge or at Day 28 whichever came first.
Plasma citrulline concentration levels were the primary PK variable; these were assessed in blood samples collected at 7 perioperative time points. Secondary PK variables were concentrations of arginine and nitric oxide (NO) metabolites in the same sample set. PK values were compared between groups.
The citrulline concentration levels during and after the CPB procedure was the PK parameter of interest in this study. The target level in patients treated with intravenous citrulline was a plasma citrulline level of >100 μmol/L during the immediate follow-up period after CPB. Plasma blood collection was performed at 7 perioperative time points: at baseline before surgery, during CPB (post-bolus 1), and after surgery/CPB at the time points 0 hours (pre bolus 2), 6 hours, 12 hours, 24 hours, and 48 hours.

[8] = Phase IB study: postoperative invasive mechanical ventilation; format: in vivo, human; conditions: end of surgery until last extubation, FIG. 20
[9] = all i.v. inotropes postoperatively
[10] = end of surgery until discontinuation or Hour 48
[11] = total postoperative hours in ICU
[12] = revised IV protocol, Post Bolus 1
[13] = revised IV protocol, Pre Bolus 2

NC(=O)NCCCC(N)C(=O)O (centres unmarked) [Citrulline, 2-amino-5-(carbamoylamino)pentanoic acid]
Total inotrope score, Diff (CI) placebo vs citrulline [1, 9]: 559.8 (−193.5, 1313.2)
Total inotrope score, Median [1, 9]: 650.0
Total inotrope score, Range [1, 9]: 0.0-2351.0
Total inotrope score, Mean ± SD ([1]; all i.v. inotropes postoperatively, N = 11): 602.7 ± 727.86
Length of time on i.v. inotropes, Diff (CI) placebo vs citrulline ([1]; maximally 48 hours): 12.7 (−2.6, 28.1) hours
Length of time on i.v. inotropes, Median ([1]; maximally 48 hours): 16.0 h
Length of time on i.v. inotropes, Range ([1]; maximally 48 hours): 0.0 to 47.0 h
Length of time on i.v. inotropes, Mean ± SD ([1]; maximally 48 hours, N = 11): 13.4 ± 14.78 h
Total vasoactive score, Mean ± SD ([2]; N = 11): 5.5 ± 10.62
Length of time on vasoactive medications, Diff (CI) placebo vs citrulline [2, 10]: 3.5 (−7.0, 14.1) hours
Length of time on vasoactive medications, Median [2, 10]: 1.0 h
Length of time on vasoactive medications, Range [2, 10]: 0.0 to 17.0 h
Length of time on vasoactive medications, Mean ± SD ([2]; end of surgery until discontinuation or Hour 48, N = 11): 6.3 ± 7.18 h
Total vasoactive score, Diff (CI) placebo vs citrulline ([2]; in vivo): 5.2 (−7.7, 18.0)
Total vasoactive score, Median ([2]; in vivo): 1.1
Total vasoactive score, Range ([2]; in vivo): 0.0-35.5
adverse side effects ([3]; 50 mg/kg IV): No adverse side effects were noted
adverse side effects ([3]; 100 mg/kg IV): no adverse side effects were noted
adverse effects ([3]; IV doses 200, 400, and 600 mg/kg): no adverse effects were noted
adverse effects including hypotension ([3]; any of 50, 100, 150 mg/kg IV): no adverse effects including hypotension
adverse side effects ([3]; bolus 150 mg/kg plus continuous infusion 9 mg/kg/hr): No adverse side effects were noted
significant adverse events ([3]; bolus 150 mg/kg plus infusion 9 mg/kg/hour for 48 hours, 9 patients): one significant adverse event but it was not related to the use of IV citrulline
Longest duration of mechanical ventilation, i.v. inotrope use, or vasodilator use, Diff (CI) placebo vs citrulline ([4]; re-intubation excluded): 17.5 (−1.2, 36.2) hours
Longest duration of mechanical ventilation, i.v. inotrope use, or vasodilator use, Mean ± SD ([4]; re-intubation excluded): 14.5 ± 13.99 h
Longest duration of mechanical ventilation, i.v. inotrope use, or vasodilator use, Median ([4]; re-intubation excluded): 15.0 h
Longest duration of mechanical ventilation, i.v. inotrope use, or vasodilator use, Range ([4]; re-intubation excluded): 0.0 to 47.0 h
Longest duration of mechanical ventilation, i.v. inotrope use, or vasodilator use, Diff (CI) placebo vs citrulline ([4]; re-intubation included): 29.9 (−11.0, 70.9) hours
Longest duration of mechanical ventilation, i.v. inotrope use, or vasodilator use, Mean ± SD ([4]; re-intubation included): 14.5 ± 13.99 h
Longest duration of mechanical ventilation, i.v. inotrope use, or vasodilator use, Median ([4]; re-intubation included): 15.0 h
Longest duration of mechanical ventilation, i.v. inotrope use, or vasodilator use, Range ([4]; re-intubation included): 0.0 to 47.0 h
Duration of PICU stay, Diff (CI) placebo vs citrulline [4, 11]: 69.14 (−49.39, 187.67) hours
Duration of PICU stay, Median [4, 11]: 28.52 h
Duration of PICU stay, Range [4, 11]: 20.8 to 72.0 h
Duration of PICU stay, Mean ± SD ([4]; total postoperative hours in ICU, N = 11): 35.94 ± 16.150 h
hemodynamic instability [5]: No hemodynamic instability
Mean Arterial Blood Pressures ([5]; 1 hour post): 67.4 mmHg
Mean Arterial Blood Pressures ([5]; 2 hours post): 64.8 mmHg
Mean Arterial Blood Pressures ([5]; 3 hours post): 62.2 mmHg
Mean Arterial Blood Pressures ([5]; Pre-dose): 67.0 mmHg
production of nitric oxide [6]: increases the production of NO
Number of samples with Citrulline >100 μmol/L ([7]; Site 01): 25
Number of samples with Citrulline ≤100 μmol/L ([7]; Site 01): 2
Number of samples with Citrulline >100 μmol/L ([7]; Site 02): 29
Number of samples with Citrulline ≤100 μmol/L ([7]; Site 02): 3
samples with plasma citrulline levels <100 μmol/L ([7]; of the total of 59 samples, excluding baseline samples): 5
Citrulline concentrations, Mean ± SD ([7]; revised IV protocol, N = 11, Baseline): 200.9 ± 569.89 µmol/L
Citrulline concentrations, Median ([7]; revised IV protocol, Baseline): 32.0 µmol/L
Citrulline concentrations, Mean ± SD ([7]; revised IV protocol, Hour 6): 167.8 ± 117.67 µmol/L
Citrulline concentrations, Median ([7]; revised IV protocol, Hour 6): 138.0 µmol/L
Citrulline concentrations, Mean ± SD ([7]; revised IV protocol, Hour 12): 127.1 ± 16.18 µmol/L
Citrulline concentrations, Median ([7]; revised IV protocol, Hour 12): 125.0 µmol/L
Citrulline concentrations, Mean ± SD ([7]; revised IV protocol, Hour 24): 125.3 ± 38.74 µmol/L
Citrulline concentrations, Median ([7]; revised IV protocol, Hour 24): 114.0 µmol/L
Citrulline concentrations, Mean ± SD [7, 12]: 2405.9 ± 1517.4 µmol/L
Citrulline concentrations, Median [7, 12]: 2577.0 µmol/L
Citrulline concentrations, Mean ± SD [7, 13]: 890.9 ± 1077.5 µmol/L
Citrulline concentrations, Median [7, 13]: 573.0 µmol/L
plasma citrulline levels achieved ([7]; revised IV protocol, target level 100 μmol/L): > 100 µmol/L
duration of mechanical ventilation versus placebo (Kaplan-Meier) [8]: reduced duration of mechanical ventilation
